Results: patent US20090118194A1, “Measurement of melanocortin peptides and uses thereof” (Auckland UniServices Limited, priority 2002, published 2009)
“Also recorded” adds a separate entry of the source.

System: food deprived Wistar rats
Assay: Food intake after i.c.v. injection of melanocortin peptides
Assay type: in vivo, rat
Protocol: Adult male Wistar rats (50-60 days old, 230-260 g at the beginning of the experiment) were maintained in individual cages under controlled temperature (23° C.) and reverse lighting (1000-2200 lights off). Standard laboratory chow (NZ Stockfeed Ltd) and tap water were available ad libitum during the adaptation phase. During this time animals were handled daily to minimize the effects of stress on food intake during experiments. Body weight was measured daily before, and one week after cannulation. Any animal showing signs of illness, such as weight loss, poor grooming, or decreased activity, was removed from the study. All animal procedures undertaken were approved by the Animal Ethics Committee of the University of Auckland.
After 7 days of adaptation, animals were subject to cannula placement surgery under 3% halothane/O2 anaesthesia. A permanent lateral ventricle infusion cannula (6-mm 21 gauge) was placed on top of the dura at 7.5 mm anterior from stereotaxic zero, 1.5 mm to the right of the mid-sagittal line, and secured to the skull with dental cement. Animals were allowed at least 7 days to recover from surgery before injections.
Rats were fasted overnight before the day of experiment.
Under 3% halothane/O2 anaethesia rats were infused icv through a 12-mm 27-gauge needle, connected to 20-cm length tubing attached to a syringe. Infusions were performed in the early dark phase between 1000 and 1130 hr using motor driven infusion pumps at a rate of 1.0 μl/min over 10 min. Movement of a 0.2 ml air-space introduced between the 0.9% saline solution filling the PE10 tubing-syringe system and the test solution served as an indicator of a successful infusion. […]
Following infusion, the cannula was left in place for 1 min, removed, and the animal returned to its cage with fresh pre-weighed food and water. At 3 h post-injection, the pellets and collected food spillage in the cage, were weighed and this weight was subtracted from the initial weight to quantify the amount of food eaten over 3 h.
The significance of treatment effects was evaluated using one-way ANOVA (Systat10 package)

SYSMEHFRWGKPV [desacetyl-α-MSH, non-acetylated form of α-MSH, obtained from Bachem]
effect on food intake over 3 h vs PBS (10 μg i.c.v., first study): not significantly different from the PBS treated control group | effect on food intake over 3 h vs PBS (10 μg i.c.v., first study, listed as Desacetyl-α-MSH): no significant effect on feeding | effect on food intake over 3 h vs PBS (50 μg i.c.v., second study): significantly reduce food intake; also recorded: significantly decreased food intake
